The values below come from patent US12390446B2 (RESEARCH TRIANGLE INSTITUTE, priority 2017, dated 2025).

Test [1] has as its target T1, NPFF2 receptor (human NPFFR2 in CHO-RD-HGA16 cells) (Homo sapiens, UniProt Q9Y5X5).
T1 construct: expressed in transfected cells
The test is described as follows: Calcium mobilization functional Ke assay, NPFF2. It is filed as cell-based. To be noted: for Kb: read-out: NPFF2 Ke.

Test [2] deals with T2, NPFF1 receptor (human NPFFR1 in CHO-RD-HGA16 cells) (Homo sapiens, UniProt Q9GZQ6).
T2 construct: expressed in transfected cells
T2 sequence (Q9GZQ6 whole entry): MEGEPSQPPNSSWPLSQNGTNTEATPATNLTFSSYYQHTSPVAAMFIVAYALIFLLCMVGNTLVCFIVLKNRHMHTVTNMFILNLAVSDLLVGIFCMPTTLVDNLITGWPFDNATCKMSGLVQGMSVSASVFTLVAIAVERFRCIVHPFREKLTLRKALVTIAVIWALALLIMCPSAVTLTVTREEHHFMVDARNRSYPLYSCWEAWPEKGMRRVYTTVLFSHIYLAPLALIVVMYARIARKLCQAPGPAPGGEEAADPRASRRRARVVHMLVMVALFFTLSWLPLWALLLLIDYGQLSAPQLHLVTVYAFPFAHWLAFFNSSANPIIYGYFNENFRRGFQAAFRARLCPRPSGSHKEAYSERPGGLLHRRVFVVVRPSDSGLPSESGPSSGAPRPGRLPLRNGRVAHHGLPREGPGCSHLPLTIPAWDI
As to the kind of experiment: Calcium mobilization functional Ke assay, NPFF1. Type of test: cell-based. To be noted: for Kb: read-out: NPFF1 Ke; for type of antagonism in curve-shift assays: standard incubation, competitive profile with longer incubations.

[3] abbreviates: Table 1, footnote c: pre-incubation of antagonist and test compound 45 min or 1 hr.
Setting [4] is: Table 1, mean ± SEM, apparent dissociation constant vs NPFF.
Where [5] appears, read: Table 2, footnote c: pre-incubation 1 hr.
Setting [6] is: Table 2, 4-(4-methylthio)benzylamino series, mean ± SEM.

Each structure is given as a SMILES string. Read-outs that look alike come from different tables or passages of the source. Bounds are passed on as bounds.

T1 sequence (Q9Y5X5 whole entry): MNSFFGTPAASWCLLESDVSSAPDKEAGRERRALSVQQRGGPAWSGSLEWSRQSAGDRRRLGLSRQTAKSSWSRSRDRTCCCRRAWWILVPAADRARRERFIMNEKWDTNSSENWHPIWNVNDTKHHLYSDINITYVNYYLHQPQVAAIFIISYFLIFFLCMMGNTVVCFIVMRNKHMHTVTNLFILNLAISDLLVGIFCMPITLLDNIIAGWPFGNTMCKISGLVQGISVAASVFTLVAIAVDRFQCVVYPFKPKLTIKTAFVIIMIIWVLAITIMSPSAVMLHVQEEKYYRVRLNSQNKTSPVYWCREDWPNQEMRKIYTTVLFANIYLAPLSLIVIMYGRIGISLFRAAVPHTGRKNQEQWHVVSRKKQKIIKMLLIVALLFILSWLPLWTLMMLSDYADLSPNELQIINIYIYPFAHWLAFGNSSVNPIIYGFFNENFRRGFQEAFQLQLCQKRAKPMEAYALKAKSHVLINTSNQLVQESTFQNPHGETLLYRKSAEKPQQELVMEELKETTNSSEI

Take `COc1ccc(CN[C@H]2C[C@@H](C(=O)NCc3ccccc3)N(Cc3ccccc3Cl)C2)cc1` [Compound 23, (2S,4S)—N-Benzyl-1-[(2-chlorophenyl)methyl]-4-{[(4-methoxyphenyl)methyl]amino}pyrrolidine-2-carboxamide]: the Kb in test [1] (setting [3]) came to 2010 nM; in test [2] (setting [3]) it was 780 ± 80 nM. The “type of antagonism in curve-shift assays” value in test [2] is “insurmountable antagonism”.

Consider `COc1ccc(CN[C@H]2C[C@@H](C(=O)NCCc3ccccc3)N(Cc3ccc(C)cc3)C2)cc1` [Compound 83, (2S,4S)-4-{[(4-Methoxyphenyl)methyl]amino}-1-[(4-methylphenyl)methyl]-N-(2-phenylethyl)pyrrolidine-2-carboxamide], for which the Kb is greater than 10000 nM in test [1] and 1320 nM in test [2].

`COc1ccc(CN[C@H]2C[C@@H](C(=O)NCCc3ccc([N+](=O)[O-])cc3)N(Cc3ccccc3Cl)C2)cc1OC` [Compound 60, (2S,4S)-1-[(2-Chlorophenyl)methyl]-4-{[(3,4-dimethoxyphenyl)methyl]amino}-N-[2-(4-nitrophenyl)ethyl]pyrrolidine-2-carboxamide]: the Kb in test [1] (Table 3, mean ± SEM) worked out at 3150 nM; in test [2] (Table 3, mean ± SEM), 1920 nM.

Regarding `COc1ccc(CN[C@H]2C[C@@H](C(=O)NCCc3ccccc3)N(Cc3ccc(Cl)cc3)C2)cc1` [Compound 78, (2S,4S)-1-[(4-Chlorophenyl)methyl]-4-{[(4-methoxyphenyl)methyl]amino}-N-(2-phenylethyl)pyrrolidine-2-carboxamide], the Kb was determined as 4850 nM in test [1] (Table 4, mean ± SEM) and 2150 nM in test [2] (Table 4, mean ± SEM).

Regarding `CCCCCCNC(=O)[C@@H]1C[C@H](NCc2ccc(OC)cc2)CN1Cc1ccccc1Cl` [Compound 18, (2S,4S)-1-[(2-Chlorophenyl)methyl]-4-{[(4-methoxyphenyl)methyl]amino}-N-hexylpyrrolidine-2-carboxamide], the Kb in test [1] (setting [3]) is 1490 nM; in test [2] (setting [4]), 820 ± 80 nM.

Take `COc1ccc(CN[C@H]2C[C@@H](C(=O)NCCc3ccccc3)N(Cc3ccc4c(c3)OCO4)C2)cc1` [Compound 88, (2S,4S)-1-(2H-1,3-Benzodioxol-5-ylmethyl)-4-{[(4-methoxyphenyl)methyl]amino}-N-(2-phenylethyl)pyrrolidine-2-carboxamide]: the Kb was greater than 10000 nM in test [1] (Table 4, mean ± SEM) and 1860 nM in test [2] (Table 4, mean ± SEM).

For the molecule `CSc1ccc(CN[C@H]2C[C@@H](C(=O)NCCc3ccc(F)c(F)c3)N(Cc3ccccc3Cl)C2)cc1` [Compound 48, (2S,4S)-1-[(2-Chlorophenyl)methyl]-N-[2-(3,4-difluorophenyl)ethyl]-4-{[(4-(methylthio)phenyl)methyl]amino}pyrrolidine-2-carboxamide], the Kb in test [1] (setting [5]) worked out at 880 ± 160 nM; in test [2] (setting [6]), 470 ± 60 nM; in test [2] (calcium mobilization assay), 470 nM.

As to `CCN(CC)C(=O)[C@@H]1C[C@H](NCc2ccc(OC)cc2)CN1Cc1ccccc1Cl` [Compound 40, (2S,4S)-1-[(2-Chlorophenyl)methyl]-N,N-diethyl-4-{[(4-methoxyphenyl)methyl]amino}pyrrolidine-2-carboxamide], the Kb in test [1] (setting [4]) worked out at 4930 nM; in test [2] (setting [4]), 2900 nM.

`CCNC(=O)[C@@H]1C[C@H](NCc2ccc(SC)cc2)CN1Cc1ccccc1Cl` [Compound 1]: the “NPFF2 Ke” value in test [1] (calcium mobilization assay) is 7,250 nM. For the same molecule, the “NPFF1 Ke” value in test [2] (calcium mobilization assay) is on record as 1,620 nM.

On to `COc1ccc(CN[C@H]2C[C@@H](C(=O)NCCc3ccccc3)N(Cc3ccc(OC)c(OC)c3)C2)cc1` [Compound 81, (2S,4S)-1-[(3,4-Dimethoxyphenyl)methyl]-4-{[(4-methoxyphenyl)methyl]amino}-N-(2-phenylethyl)pyrrolidine-2-carboxamide], for which the Kb in test [1] (Table 4, mean ± SEM) came out at 5360 nM; in test [2] (Table 4, mean ± SEM), 9020 nM.

For `CCCCCNC(=O)[C@@H]1C[C@H](NCc2ccc(SC)cc2)CN1Cc1ccccc1Cl` [Compound 44, (2S,4S)-1-[(2-Chlorophenyl)methyl]-4-{[(4-(methylthio)phenyl)methyl]amino}-N-pentylpyrrolidine-2-carboxamide], the Kb in test [1] (setting [5]) came to 970 ± 30 nM; in test [2] (setting [6]), 360 ± 50 nM; in test [2] (calcium mobilization assay), 360 nM.

As to `O=C(NCCc1ccc([N+](=O)[O-])cc1)[C@@H]1C[C@H](NCCc2ccccc2)CN1Cc1ccccc1Cl` [Compound 58], the Kb was 1130 nM in test [1] (Table 3, mean ± SEM) and 1150 nM in test [2] (Table 3, mean ± SEM).

On to `CCCN[C@H]1C[C@@H](C(=O)NCCc2ccc([N+](=O)[O-])cc2)N(Cc2ccccc2Cl)C1` [Compound 52], for which the Kb in test [1] (Table 3, mean ± SEM) was greater than 10000 nM; in test [2] (Table 3, mean ± SEM), 5160 nM.

`COc1ccc(CN[C@H]2C[C@@H](C(=O)NCCc3ccccc3)N(Cc3ccc(O)cc3)C2)cc1` [Compound 84, (2S,4S)-1-[(4-Hydroxyphenyl)methyl]-4-{[(4-methoxyphenyl)methyl]amino}-N-(2-phenylethyl)pyrrolidine-2-carboxamide]: the Kb in test [1] (Table 4, mean ± SEM) was greater than 10000 nM; in test [2] (Table 4, mean ± SEM) it was greater than 10000 nM.

Take `COc1ccc(CN[C@H]2C[C@@H](C(=O)NCCc3ccccc3)N(Cc3ccccc3OC)C2)cc1` [Compound 79, (2S,4S)-1-[(2-Methoxyphenyl)methyl]-4-{[(4-methoxyphenyl)methyl]amino}-N-(2-phenylethyl)pyrrolidine-2-carboxamide]: the Kb in test [1] (Table 4, mean ± SEM) came out at 5110 nM; in test [2] (Table 4, mean ± SEM), 1230 nM.

Turning to `COc1ccc(CN[C@H]2C[C@@H](C(=O)NCCCc3ccccc3)N(Cc3ccccc3Cl)C2)cc1` [Compound 25, (2S,4S)-1-[(2-Chlorophenyl)methyl]-4-{[(4-methoxyphenyl)methyl]amino}-N-(3-phenylpropyl)pyrrolidine-2-carboxamide], the Kb in test [1] (setting [3]) is 2600 nM; in test [2], greater than 10000 nM.

For `COc1ccc(CN[C@H]2C[C@@H](C(=O)NC(C)(C)C)N(Cc3ccccc3Cl)C2)cc1` [Compound 15, (2S,4S)—N-tert-Butyl-1-[(2-chlorophenyl)methyl]-4-{[(4-methoxyphenyl)methyl]amino}pyrrolidine-2-carboxamide], the Kb in test [1] (setting [3]) is 1260 nM; in test [2] (setting [4]), 1880 nM.

As to `CCCN(CCC)C(=O)[C@@H]1C[C@H](NCc2ccc(OC)cc2)CN1Cc1ccccc1Cl` [Compound 41, (2S,4S)-1-[(2-Chlorophenyl)methyl]-4-{[(4-methoxyphenyl)methyl]amino}-N,N-dipropylpyrrolidine-2-carboxamide], the Kb in test [1] (setting [3]) came to 1730 nM; in test [2] (setting [3]) it was 880 ± 120 nM; in test [2] (calcium mobilization assay) it was 880 nM. Moreover, the “type of antagonism in curve-shift assays” value in test [2] is listed as “insurmountable antagonism”.

Take `O=C(NCCc1ccc([N+](=O)[O-])cc1)[C@@H]1C[C@H](NCc2ccc(C(F)(F)F)cc2)CN1Cc1ccccc1Cl` [Compound 62, (2S,4S)-1-[(2-Chlorophenyl)methyl]-N-[2-(4-nitrophenyl)ethyl]-4-({[4-(trifluoromethyl)phenyl]methyl}amino)pyrrolidine-2-carboxamide]: the Kb worked out at 6380 nM in test [1] (Table 3, mean ± SEM) and 2060 nM in test [2] (Table 3, mean ± SEM).

In the case of `COc1ccc(CN[C@H]2C[C@@H](C(=O)NCCc3ccccc3)N(Cc3ccc(N(C)C)cc3)C2)cc1` [Compound 85, (2S,4S)-1-{[4-(Dimethylamino)phenyl]methyl}-4-{[(4-methoxyphenyl)methyl]amino}-N-(2-phenylethyl)pyrrolidine-2-carboxamide], the Kb is greater than 10000 nM in test [1] (Table 4, mean ± SEM) and 3510 nM in test [2] (Table 4, mean ± SEM).

On to `O=C(NCCc1ccc([N+](=O)[O-])cc1)[C@@H]1C[C@H](NCc2ccc(O)cc2)CN1Cc1ccccc1Cl` [Compound 61, (2S,4S)-1-[(2-Chlorophenyl)methyl]-4-{[(4-hydroxyphenyl)methyl]amino}-N-[2-(4-nitrophenyl)ethyl]pyrrolidine-2-carboxamide], for which the Kb in test [1] (Table 3, mean ± SEM) was 6370 nM; in test [2] (Table 3, mean ± SEM), 4790 nM.

Turning to `CCCCCN[C@H]1C[C@@H](C(=O)NCCc2ccc([N+](=O)[O-])cc2)N(Cc2ccccc2Cl)C1` [Compound 54, (2S,4S)-1-[(2-Chlorophenyl)methyl]-N-[2-(4-nitrophenyl)ethyl]-4-(pentylamino) pyrrolidine-2-carboxamide], the Kb is greater than 10000 nM in test [1] (Table 3, mean ± SEM) and 2480 nM in test [2] (Table 3, mean ± SEM).

Take `COc1ccc(CN[C@H]2C[C@@H](C(=O)NCCC(C)C)N(Cc3ccccc3Cl)C2)cc1` [Compound 17, (2S,4S)-1-[(2-Chlorophenyl)methyl]-4-{[(4-methoxyphenyl)methyl]amino}-N-(3-methylbutyl)pyrrolidine-2-carboxamide]: the results for the Kb in test [1] (setting [3]) and in test [2] (setting [4]) were 1540 nM and 1320 nM, respectively.

On to `CNC(=O)[C@@H]1C[C@H](NCc2ccc(OC)cc2)CN1Cc1ccccc1Cl` [Compound 10, (2S,4S)-1-[(2-Chlorophenyl)methyl]-4-{[(4-methoxyphenyl)methyl]amino}-N-methylpyrrolidine-2-carboxamide], for which the “NPFF2 antagonist activity” value in test [1] (at 10 μM) was “inactive”. In addition, in test [2] (at 10 μM), the “NPFF1 antagonist activity” value is “inactive”.

With `COc1ccc(CN[C@H]2C[C@@H](C(=O)NCCc3ccccc3)N(Cc3cccc(Cl)c3)C2)cc1` [Compound 77, (2S,4S)-1-[(3-Chlorophenyl)methyl]-4-{[(4-methoxyphenyl)methyl]amino}-N-(2-phenylethyl)pyrrolidine-2-carboxamide], the Kb was 4100 nM in test [1] (Table 4, mean ± SEM) and 580 ± 50 nM in test [2] (Table 4, mean ± SEM). Besides, the “preference / selectivity for NPFF1 over NPFF2” value in test [2] (from calcium mobilization Ke values) is recorded as greater than 10 fold.
